Reference: PubChem BioAssay (NCI)
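96-well plates; 48 h exposure; 5 concentrations. Endpoints by linear interpolation between flanking doses. Not reached: highest tested concentration assigned. GI50 marks 50% less growth. TGI denotes the concentration required for complete inhibition of growth.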

Legend:
Test in all cases: growth of human tumour cells (NCI), 48 h
SR leukemia = tested on: SR leukemia
U251 CNS = tested on: U251 CNS
HOP-62 NSCLC = tested on: HOP-62 NSCLC
HCT-116 colon = tested on: HCT-116 colon
HL-60(TB) leukemia = tested on: HL-60(TB) leukemia
K-562 leukemia = tested on: K-562 leukemia
COLO 205 colon = tested on: COLO 205 colon
OVCAR-3 ovarian = tested on: OVCAR-3 ovarian
SN12C renal = tested on: SN12C renal
SF-268 CNS = tested on: SF-268 CNS
SW-620 colon = tested on: SW-620 colon
KM12 colon = tested on: KM12 colon
LOX IMVI melanoma = tested on: LOX IMVI melanoma
SF-539 CNS = tested on: SF-539 CNS
RPMI-8226 leukemia = tested on: RPMI-8226 leukemia
EKVX NSCLC = tested on: EKVX NSCLC
SNB-75 CNS = tested on: SNB-75 CNS
SNB-19 CNS = tested on: SNB-19 CNS
UACC-257 melanoma = tested on: UACC-257 melanoma
CCRF-CEM leukemia = tested on: CCRF-CEM leukemia
TK-10 renal = tested on: TK-10 renal
IGROV1 ovarian = tested on: IGROV1 ovarian
UO-31 renal = tested on: UO-31 renal
786-0 renal = tested on: 786-0 renal
NCI-H226 lung = tested on: NCI-H226 lung
SK-OV-3 ovarian = tested on: SK-OV-3 ovarian
MCF7 breast = tested on: MCF7 breast
DU-145 prostate = tested on: DU-145 prostate
RXF 393 renal = tested on: RXF 393 renal
T-47D breast = tested on: T-47D breast
MOLT-4 leukemia = tested on: MOLT-4 leukemia
OVCAR-4 ovarian = tested on: OVCAR-4 ovarian
NCI-H522 lung = tested on: NCI-H522 lung
HS 578T breast = tested on: HS 578T breast
SK-MEL-28 melanoma = tested on: SK-MEL-28 melanoma
HOP-92 NSCLC = tested on: HOP-92 NSCLC
NCI/ADR-RES ovarian = tested on: NCI/ADR-RES ovarian
HCC-2998 colon = tested on: HCC-2998 colon
OVCAR-5 ovarian = tested on: OVCAR-5 ovarian
PC-3 prostate = tested on: PC-3 prostate
BT-549 breast = tested on: BT-549 breast
A549 NSCLC = tested on: A549 NSCLC
SK-MEL-5 melanoma = tested on: SK-MEL-5 melanoma
UACC-62 melanoma = tested on: UACC-62 melanoma
MALME-3M melanoma = tested on: MALME-3M melanoma
OVCAR-8 ovarian = tested on: OVCAR-8 ovarian
A498 renal = tested on: A498 renal
NCI-H460 lung = tested on: NCI-H460 lung
M14 melanoma = tested on: M14 melanoma
HT29 colon = tested on: HT29 colon
SK-MEL-2 melanoma = tested on: SK-MEL-2 melanoma
SF-295 CNS = tested on: SF-295 CNS
ACHN renal = tested on: ACHN renal
HCT-15 colon = tested on: HCT-15 colon
MDA-MB-231 breast = tested on: MDA-MB-231 breast
CAKI-1 renal = tested on: CAKI-1 renal
MDA-MB-435 = tested on: MDA-MB-435

With `CCCC(=O)NC(c1cccnc1)c1cc(C(C)(C)C)c2cccnc2c1O` (centres undefined) the GI50 (SR leukemia) was 3.69 µM, the TGI (SR leukemia) was greater than 100 µM and the GI50 (U251 CNS) was 4.12 µM. For the same compound, the TGI (U251 CNS) was greater than 100 µM, the GI50 (HOP-62 NSCLC) was 4.15 µM and the TGI (HOP-62 NSCLC) was greater than 100 µM. For the same compound, the GI50 (HCT-116 colon) was 3.74 µM, the TGI (HCT-116 colon) was greater than 100 µM and the GI50 (HL-60(TB) leukemia) was 2.86 µM. The TGI (HL-60(TB) leukemia) was 21.1 µM, the GI50 (K-562 leukemia) was 3.45 µM and the TGI (K-562 leukemia) was greater than 100 µM. It also gave a GI50 (COLO 205 colon) of 3.25 µM, a TGI (COLO 205 colon) greater than 100 µM and a GI50 (OVCAR-3 ovarian) of 3.98 µM. The TGI (OVCAR-3 ovarian) was greater than 100 µM, the GI50 (SN12C renal) was 7.13 µM and the TGI (SN12C renal) was greater than 100 µM. It also gave a GI50 (SF-268 CNS) of 5.11 µM, a TGI (SF-268 CNS) greater than 100 µM and a GI50 (SW-620 colon) of 6.07 µM. It also gave a TGI (SW-620 colon) greater than 100 µM, a GI50 (KM12 colon) of 6.8 µM and a TGI (KM12 colon) greater than 100 µM. The GI50 (LOX IMVI melanoma) was 3.78 µM, the TGI (LOX IMVI melanoma) was greater than 100 µM and the GI50 (SF-539 CNS) was 4.37 µM. It also gave a TGI (SF-539 CNS) greater than 100 µM, a GI50 (RPMI-8226 leukemia) of 4.35 µM and a TGI (RPMI-8226 leukemia) greater than 100 µM. It also gave a GI50 (EKVX NSCLC) of 5.19 µM, a TGI (EKVX NSCLC) greater than 100 µM and a GI50 (SNB-75 CNS) of 2.51 µM. For the same compound, the TGI (SNB-75 CNS) was 16.4 µM, the GI50 (SNB-19 CNS) was 8.15 µM and the TGI (SNB-19 CNS) was greater than 100 µM. The GI50 (UACC-257 melanoma) was 3.82 µM, the TGI (UACC-257 melanoma) was 66.4 µM and the GI50 (CCRF-CEM leukemia) was 2.63 µM. It also gave a TGI (CCRF-CEM leukemia) greater than 100 µM, a GI50 (TK-10 renal) of 5.48 µM and a TGI (TK-10 renal) greater than 100 µM. The GI50 (IGROV1 ovarian) was 3.7 µM, the TGI (IGROV1 ovarian) was greater than 100 µM and the GI50 (UO-31 renal) was 2.22 µM. It also gave a TGI (UO-31 renal) greater than 100 µM, a GI50 (786-0 renal) of 4.61 µM and a TGI (786-0 renal) greater than 100 µM. For the same compound, the GI50 (NCI-H226 lung) was 3.75 µM, the TGI (NCI-H226 lung) was 83.1 µM and the GI50 (SK-OV-3 ovarian) was 3.46 µM. For the same compound, the TGI (SK-OV-3 ovarian) was 71.7 µM, the GI50 (MCF7 breast) was 2.97 µM and the TGI (MCF7 breast) was greater than 100 µM. For the same compound, the GI50 (DU-145 prostate) was 11.3 µM, the TGI (DU-145 prostate) was greater than 100 µM and the GI50 (RXF 393 renal) was 4.31 µM. For the same compound, the TGI (RXF 393 renal) was greater than 100 µM, the GI50 (T-47D breast) was 3.59 µM and the TGI (T-47D breast) was greater than 100 µM. For the same compound, the GI50 (MOLT-4 leukemia) was 3.53 µM, the TGI (MOLT-4 leukemia) was greater than 100 µM and the GI50 (OVCAR-4 ovarian) was 3.82 µM. For the same compound, the TGI (OVCAR-4 ovarian) was greater than 100 µM, the GI50 (NCI-H522 lung) was 2.78 µM and the TGI (NCI-H522 lung) was 20.4 µM. For the same compound, the GI50 (HS 578T breast) was 7.31 µM, the TGI (HS 578T breast) was greater than 100 µM and the GI50 (SK-MEL-28 melanoma) was 4.86 µM. For the same compound, the TGI (SK-MEL-28 melanoma) was greater than 100 µM, the GI50 (HOP-92 NSCLC) was 1.53 µM and the TGI (HOP-92 NSCLC) was 16.2 µM. The GI50 (NCI/ADR-RES ovarian) was 2.54 µM, the TGI (NCI/ADR-RES ovarian) was greater than 100 µM and the GI50 (HCC-2998 colon) was 7.41 µM. It also gave a TGI (HCC-2998 colon) greater than 100 µM, a GI50 (OVCAR-5 ovarian) of 6.96 µM and a TGI (OVCAR-5 ovarian) greater than 100 µM. For the same compound, the GI50 (PC-3 prostate) was 4.39 µM, the TGI (PC-3 prostate) was greater than 100 µM and the GI50 (BT-549 breast) was 5.06 µM. For the same compound, the TGI (BT-549 breast) was greater than 100 µM, the GI50 (A549 NSCLC) was 5.68 µM and the TGI (A549 NSCLC) was greater than 100 µM. It also gave a GI50 (SK-MEL-5 melanoma) of 13.7 µM, a TGI (SK-MEL-5 melanoma) of 48.4 µM and a GI50 (UACC-62 melanoma) of 3.24 µM. It also gave a TGI (UACC-62 melanoma) of 19.6 µM, a GI50 (MALME-3M melanoma) of 10.6 µM and a TGI (MALME-3M melanoma) greater than 100 µM. It also gave a GI50 (OVCAR-8 ovarian) of 4 µM, a TGI (OVCAR-8 ovarian) greater than 100 µM and a GI50 (A498 renal) greater than 100 µM. It also gave a TGI (A498 renal) greater than 100 µM, a GI50 (NCI-H460 lung) of 3.89 µM and a TGI (NCI-H460 lung) greater than 100 µM. For the same compound, the GI50 (M14 melanoma) was 3.91 µM, the TGI (M14 melanoma) was 44 µM and the GI50 (HT29 colon) was 4.32 µM. The TGI (HT29 colon) was greater than 100 µM, the GI50 (SK-MEL-2 melanoma) was 6.7 µM and the TGI (SK-MEL-2 melanoma) was greater than 100 µM. For the same compound, the GI50 (SF-295 CNS) was 4.24 µM, the TGI (SF-295 CNS) was greater than 100 µM and the GI50 (ACHN renal) was 3.62 µM. The TGI (ACHN renal) was greater than 100 µM, the GI50 (HCT-15 colon) was 3.24 µM and the TGI (HCT-15 colon) was greater than 100 µM. The GI50 (MDA-MB-231 breast) was 6.3 µM, the TGI (MDA-MB-231 breast) was greater than 100 µM and the GI50 (CAKI-1 renal) was 3.19 µM. For the same compound, the TGI (CAKI-1 renal) was greater than 100 µM, the GI50 (MDA-MB-435) was 6.94 µM and the TGI (MDA-MB-435) was greater than 100 µM.
